Series [1] is described as follows: Brain homogenate assay (unbound fraction in brain). Format: in vitro ADME. The conditions noted are these: rat. On the procedure: Frozen rat brains were homogenized in PBS buffer (dilution factor D = 4). The homogenate was spiked with test compounds (1 μM final concentration, final concentration of DMSO was 0.1%) and subsequently dialyzed against PBS buffer for 8 hrs at 37°C in rapid equilibrium dialysis cells (RED-device, Pierce). At the end of the dialysis period, the dialysate was transferred into reaction tubes and mixed with an analytical internal standard. Tissue homogenate was added to buffer samples and buffer was added to tissue samples to ensure identical matrix composition for bioanalytical measurement. After protein precipitation using acetonitrile, samples were measured by LC-MS/MS. The free fraction was calculated as fu,app = (CPBS/Chomogenate). Since the brains were homogenized in the buffer, the observed free fraction values (fu,app) were extrapolated to the fractions unbound in the brain (fu*) based on the dilution (D) using the following formula: fu*=(1/D)/((1/fu,app−1)+1/D).

For the next series, the target named is Ca2+ channel (N) (Rattus norvegicus, UniProt Q02294). Description: biochemical. Format: binding.
Sequence of Ca2+ channel (N) (Q02294 whole entry): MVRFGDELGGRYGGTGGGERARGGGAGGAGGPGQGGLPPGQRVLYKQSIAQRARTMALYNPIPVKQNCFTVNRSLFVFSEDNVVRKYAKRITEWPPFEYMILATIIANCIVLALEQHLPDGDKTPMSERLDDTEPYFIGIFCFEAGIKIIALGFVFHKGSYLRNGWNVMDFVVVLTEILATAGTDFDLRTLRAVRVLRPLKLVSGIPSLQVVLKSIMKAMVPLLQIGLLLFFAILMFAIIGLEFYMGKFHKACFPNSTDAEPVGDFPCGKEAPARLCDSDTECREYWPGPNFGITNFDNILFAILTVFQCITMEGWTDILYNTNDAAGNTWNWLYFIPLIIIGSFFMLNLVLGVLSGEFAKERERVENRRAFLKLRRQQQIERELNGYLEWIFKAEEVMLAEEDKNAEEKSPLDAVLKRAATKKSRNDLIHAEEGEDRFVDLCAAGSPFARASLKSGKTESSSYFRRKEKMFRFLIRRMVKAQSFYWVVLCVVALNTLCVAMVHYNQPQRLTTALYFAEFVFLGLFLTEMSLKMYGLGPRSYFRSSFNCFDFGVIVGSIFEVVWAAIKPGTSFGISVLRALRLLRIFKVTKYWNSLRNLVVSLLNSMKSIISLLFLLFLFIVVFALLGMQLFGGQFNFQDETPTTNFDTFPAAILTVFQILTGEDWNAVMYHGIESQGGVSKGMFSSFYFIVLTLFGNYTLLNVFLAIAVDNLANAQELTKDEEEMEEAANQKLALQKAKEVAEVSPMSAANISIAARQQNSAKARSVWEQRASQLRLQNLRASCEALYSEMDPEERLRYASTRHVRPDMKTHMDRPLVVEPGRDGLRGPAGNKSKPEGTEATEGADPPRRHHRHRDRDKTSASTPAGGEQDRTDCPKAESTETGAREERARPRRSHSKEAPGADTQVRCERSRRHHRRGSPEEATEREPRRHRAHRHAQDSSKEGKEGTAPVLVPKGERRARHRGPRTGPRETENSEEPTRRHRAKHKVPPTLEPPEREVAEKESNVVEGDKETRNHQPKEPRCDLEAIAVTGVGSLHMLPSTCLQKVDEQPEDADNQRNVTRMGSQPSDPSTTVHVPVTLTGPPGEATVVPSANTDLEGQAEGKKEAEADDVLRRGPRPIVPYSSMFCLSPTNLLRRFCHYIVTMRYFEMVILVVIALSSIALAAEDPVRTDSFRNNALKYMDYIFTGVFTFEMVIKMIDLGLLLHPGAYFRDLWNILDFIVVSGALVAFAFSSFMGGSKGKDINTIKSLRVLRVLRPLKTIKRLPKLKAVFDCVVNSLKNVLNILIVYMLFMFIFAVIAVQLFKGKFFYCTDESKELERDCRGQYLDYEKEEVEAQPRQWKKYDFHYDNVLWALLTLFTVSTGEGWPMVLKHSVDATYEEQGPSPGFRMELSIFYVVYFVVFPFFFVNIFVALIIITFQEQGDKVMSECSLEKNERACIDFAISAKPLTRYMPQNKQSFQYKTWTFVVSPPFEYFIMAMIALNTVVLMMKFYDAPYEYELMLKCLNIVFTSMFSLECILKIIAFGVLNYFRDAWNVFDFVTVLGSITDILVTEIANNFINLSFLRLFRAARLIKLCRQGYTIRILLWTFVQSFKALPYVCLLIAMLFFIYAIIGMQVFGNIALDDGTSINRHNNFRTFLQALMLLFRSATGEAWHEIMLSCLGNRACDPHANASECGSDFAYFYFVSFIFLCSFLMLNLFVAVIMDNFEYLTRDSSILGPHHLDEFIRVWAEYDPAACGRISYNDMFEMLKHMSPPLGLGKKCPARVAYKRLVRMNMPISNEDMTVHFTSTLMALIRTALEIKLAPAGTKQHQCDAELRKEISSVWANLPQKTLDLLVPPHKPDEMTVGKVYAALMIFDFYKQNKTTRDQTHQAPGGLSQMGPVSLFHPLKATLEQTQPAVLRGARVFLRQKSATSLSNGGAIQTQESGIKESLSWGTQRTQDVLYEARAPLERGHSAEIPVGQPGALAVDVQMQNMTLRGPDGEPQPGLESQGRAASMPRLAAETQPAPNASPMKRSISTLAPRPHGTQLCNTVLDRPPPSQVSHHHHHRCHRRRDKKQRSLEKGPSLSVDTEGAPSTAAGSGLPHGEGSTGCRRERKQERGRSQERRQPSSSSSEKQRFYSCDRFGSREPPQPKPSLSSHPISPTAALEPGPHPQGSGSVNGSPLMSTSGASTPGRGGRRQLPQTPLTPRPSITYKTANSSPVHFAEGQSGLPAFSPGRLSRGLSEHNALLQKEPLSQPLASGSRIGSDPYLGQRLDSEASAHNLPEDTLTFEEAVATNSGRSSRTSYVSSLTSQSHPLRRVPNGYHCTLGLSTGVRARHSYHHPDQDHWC
Sequence of Ca2+ channel (N) (P54290 25-944 partner limits assumed): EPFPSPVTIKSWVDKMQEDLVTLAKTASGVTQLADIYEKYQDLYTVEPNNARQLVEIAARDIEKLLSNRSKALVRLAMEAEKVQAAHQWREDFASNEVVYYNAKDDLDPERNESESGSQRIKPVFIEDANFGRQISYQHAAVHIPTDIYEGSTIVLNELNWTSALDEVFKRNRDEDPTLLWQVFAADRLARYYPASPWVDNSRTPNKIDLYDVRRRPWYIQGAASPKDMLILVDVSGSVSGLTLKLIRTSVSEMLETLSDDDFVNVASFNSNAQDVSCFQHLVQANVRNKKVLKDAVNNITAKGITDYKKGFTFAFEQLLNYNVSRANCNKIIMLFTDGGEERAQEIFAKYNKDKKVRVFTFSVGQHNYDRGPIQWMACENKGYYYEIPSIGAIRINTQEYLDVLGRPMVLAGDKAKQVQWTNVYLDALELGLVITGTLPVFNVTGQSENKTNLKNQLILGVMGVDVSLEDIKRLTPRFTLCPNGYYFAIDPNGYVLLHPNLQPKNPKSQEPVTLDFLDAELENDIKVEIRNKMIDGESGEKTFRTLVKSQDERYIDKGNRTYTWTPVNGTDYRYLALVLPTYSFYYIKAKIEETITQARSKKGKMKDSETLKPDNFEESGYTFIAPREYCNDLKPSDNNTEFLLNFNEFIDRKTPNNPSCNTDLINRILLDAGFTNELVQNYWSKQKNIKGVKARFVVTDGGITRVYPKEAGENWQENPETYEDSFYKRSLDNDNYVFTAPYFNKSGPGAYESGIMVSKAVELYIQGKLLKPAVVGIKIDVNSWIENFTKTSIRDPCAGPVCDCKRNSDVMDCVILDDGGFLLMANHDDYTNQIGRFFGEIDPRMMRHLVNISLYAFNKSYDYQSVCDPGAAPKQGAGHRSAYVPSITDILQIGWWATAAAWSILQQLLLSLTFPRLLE
Sequence of Ca2+ channel (N) (P54290 945-1091 partner limits assumed): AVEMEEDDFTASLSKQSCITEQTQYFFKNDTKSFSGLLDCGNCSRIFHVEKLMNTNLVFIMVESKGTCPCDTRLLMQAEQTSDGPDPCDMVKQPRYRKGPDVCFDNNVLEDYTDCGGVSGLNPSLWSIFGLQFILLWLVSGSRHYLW
Sequence of Ca2+ channel (N) (P54287 whole entry partner): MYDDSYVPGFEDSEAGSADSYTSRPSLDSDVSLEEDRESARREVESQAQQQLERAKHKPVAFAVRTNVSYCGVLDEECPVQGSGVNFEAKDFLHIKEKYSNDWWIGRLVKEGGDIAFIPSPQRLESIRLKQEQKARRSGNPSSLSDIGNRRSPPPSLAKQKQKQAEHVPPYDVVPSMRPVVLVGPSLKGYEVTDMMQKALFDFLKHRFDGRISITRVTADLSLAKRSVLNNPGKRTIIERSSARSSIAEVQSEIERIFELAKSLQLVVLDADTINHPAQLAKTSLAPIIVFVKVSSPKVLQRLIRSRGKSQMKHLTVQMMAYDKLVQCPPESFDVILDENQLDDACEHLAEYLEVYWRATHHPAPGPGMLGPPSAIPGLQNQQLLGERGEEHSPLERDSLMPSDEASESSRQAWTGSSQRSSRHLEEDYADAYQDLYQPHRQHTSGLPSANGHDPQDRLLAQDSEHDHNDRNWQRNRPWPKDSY
The next series concerns the target T1, MT1 (ML1A) (h) (Homo sapiens, UniProt P48039).
T1 construct: host or cells: CHO cells
The class given is binding. The following applies: 1.0E-06 M.

In another series the test system is Cl- channel (GABA-gated). The class given is binding, rat. The following applies: 1.0E-06 M.
Another series has as its target T2, PPARγ (h) (Homo sapiens, UniProt P37231).
T2 construct: Cerep; host or cells: E. coli
T2 sequence (P37231 1-505): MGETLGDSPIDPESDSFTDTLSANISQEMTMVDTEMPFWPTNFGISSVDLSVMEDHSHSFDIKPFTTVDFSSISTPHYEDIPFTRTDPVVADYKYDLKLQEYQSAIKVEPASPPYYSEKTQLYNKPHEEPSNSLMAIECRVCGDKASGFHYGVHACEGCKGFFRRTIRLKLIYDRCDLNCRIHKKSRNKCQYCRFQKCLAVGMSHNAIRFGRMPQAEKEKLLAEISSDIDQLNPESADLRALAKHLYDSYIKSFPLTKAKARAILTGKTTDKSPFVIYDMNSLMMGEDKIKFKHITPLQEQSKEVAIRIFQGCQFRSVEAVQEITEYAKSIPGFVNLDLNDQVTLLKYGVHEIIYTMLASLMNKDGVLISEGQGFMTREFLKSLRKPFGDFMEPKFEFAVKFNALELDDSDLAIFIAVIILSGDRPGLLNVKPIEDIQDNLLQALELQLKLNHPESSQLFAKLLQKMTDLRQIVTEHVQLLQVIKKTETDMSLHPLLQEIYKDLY
The class given is binding.

The next series deals with T3, α2C (h) (Homo sapiens, UniProt P18825).
T3 construct: host or cells: CHO cells
T3 sequence (P18825 1-462): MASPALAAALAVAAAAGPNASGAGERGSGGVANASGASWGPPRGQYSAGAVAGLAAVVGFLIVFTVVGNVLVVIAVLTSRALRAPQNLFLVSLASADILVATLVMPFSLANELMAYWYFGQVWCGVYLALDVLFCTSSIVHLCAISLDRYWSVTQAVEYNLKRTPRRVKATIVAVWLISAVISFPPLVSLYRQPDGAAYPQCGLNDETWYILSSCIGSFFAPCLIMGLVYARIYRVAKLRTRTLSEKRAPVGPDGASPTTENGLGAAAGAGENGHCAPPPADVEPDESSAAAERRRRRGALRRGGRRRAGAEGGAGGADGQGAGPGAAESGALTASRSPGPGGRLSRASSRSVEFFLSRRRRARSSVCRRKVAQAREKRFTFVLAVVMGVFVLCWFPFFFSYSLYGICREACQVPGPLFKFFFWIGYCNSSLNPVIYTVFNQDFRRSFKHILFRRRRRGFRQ
The class given is binding. The following applies: 1.0E-06 M.

A further series deals with T4, CB2 (h) (Homo sapiens, UniProt P34972).
T4 construct: host or cells: CHO cells
Format: binding. The following applies: 1.0E-06 M.

The target in the next series is T5, M1 (h) (Homo sapiens, UniProt P11229).
T5 construct: host or cells: CHO cells
T5 sequence (P11229 1-460): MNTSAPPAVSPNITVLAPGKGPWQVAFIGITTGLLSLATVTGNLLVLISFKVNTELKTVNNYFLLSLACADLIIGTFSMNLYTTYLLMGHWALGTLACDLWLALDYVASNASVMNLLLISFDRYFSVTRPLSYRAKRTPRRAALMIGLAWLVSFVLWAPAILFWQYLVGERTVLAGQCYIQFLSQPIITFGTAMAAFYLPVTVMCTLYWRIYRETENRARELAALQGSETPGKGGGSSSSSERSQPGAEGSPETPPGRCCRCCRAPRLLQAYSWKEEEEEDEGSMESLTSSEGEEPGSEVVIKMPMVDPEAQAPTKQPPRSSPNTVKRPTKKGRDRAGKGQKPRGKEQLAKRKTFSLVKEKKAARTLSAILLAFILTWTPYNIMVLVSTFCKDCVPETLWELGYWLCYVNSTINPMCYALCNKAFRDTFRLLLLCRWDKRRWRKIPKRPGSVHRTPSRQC
Description: biochemical. The following applies: 1.0E-06 M. The class given is binding.

The target in another series is sst4 (h) (Homo sapiens, UniProt P31391). The class given is binding. The following applies: 1.0E-06 M.
The next series has as its target T6, V2 (h) (Homo sapiens, UniProt P30518).
T6 construct: host or cells: CHO cells
The class given is binding. The following applies: 1.0E-06 M.

The next series relates to BZD (central). Format: binding, rat. The following applies: 1.0E-06 M.
A further series has as its target T7, MC4 (h) (Homo sapiens, UniProt P32245).
T7 construct: host or cells: CHO cells
Format: binding. The following applies: 1.0E-06 M.

The target in a further series is 5-HT1B (Rattus norvegicus, UniProt P28564). The series can be described thus: biochemical.

Read-outs that look alike come from different tables or passages of the source.

T6 sequence (P30518 whole entry): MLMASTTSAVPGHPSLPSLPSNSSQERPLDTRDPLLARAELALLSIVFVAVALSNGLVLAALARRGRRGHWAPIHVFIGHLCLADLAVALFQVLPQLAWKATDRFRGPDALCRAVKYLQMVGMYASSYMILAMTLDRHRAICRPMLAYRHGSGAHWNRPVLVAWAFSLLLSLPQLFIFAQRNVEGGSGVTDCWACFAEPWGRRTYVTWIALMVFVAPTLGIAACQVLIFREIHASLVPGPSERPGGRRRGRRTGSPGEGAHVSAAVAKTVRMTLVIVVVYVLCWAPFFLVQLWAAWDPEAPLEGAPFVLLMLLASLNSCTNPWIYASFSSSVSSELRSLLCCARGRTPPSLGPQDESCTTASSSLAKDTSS
T7 sequence (P32245 whole entry): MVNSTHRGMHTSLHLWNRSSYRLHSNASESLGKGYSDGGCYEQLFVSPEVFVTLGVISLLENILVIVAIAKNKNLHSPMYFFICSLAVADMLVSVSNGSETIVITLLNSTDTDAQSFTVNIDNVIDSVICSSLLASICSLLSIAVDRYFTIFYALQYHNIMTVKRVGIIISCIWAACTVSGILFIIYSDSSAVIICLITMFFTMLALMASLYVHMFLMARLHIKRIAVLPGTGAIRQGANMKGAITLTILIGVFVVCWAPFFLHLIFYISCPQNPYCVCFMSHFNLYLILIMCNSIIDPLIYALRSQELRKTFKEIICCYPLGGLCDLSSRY
T1 sequence (P48039 whole entry): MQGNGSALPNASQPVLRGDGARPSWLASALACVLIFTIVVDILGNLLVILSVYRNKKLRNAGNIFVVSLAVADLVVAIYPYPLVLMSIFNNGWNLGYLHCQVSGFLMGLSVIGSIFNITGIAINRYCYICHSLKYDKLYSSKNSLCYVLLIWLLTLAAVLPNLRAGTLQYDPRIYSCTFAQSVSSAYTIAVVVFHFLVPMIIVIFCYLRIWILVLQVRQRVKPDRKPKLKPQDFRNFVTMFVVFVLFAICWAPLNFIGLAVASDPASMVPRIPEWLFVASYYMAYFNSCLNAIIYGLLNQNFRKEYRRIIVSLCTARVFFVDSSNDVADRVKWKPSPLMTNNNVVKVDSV

The fraction unbound is free concentration divided by total concentration. High values mean weak binding, low ones extensive binding. `Cn1c(=O)n(CCCO)c(=O)c2c1nc(Oc1cccc(Cl)c1)n2Cc1ccc(Cl)cc1` [HC-070]: in series [1] (8 h, 1 μM), the nonspecific tissue binding is listed as above 99%. This molecule also showed a fraction unbound at 8 h, 1 μM in series [1] (brain homogenate) of 0.0028 ± 0.0002.

As a reminder, the inhibition is the drop in the measured response relative to a control, in per cent. On to `Cn1c(=O)n(CCCO)c(=O)c2c1nc(Oc1cccc(OC(F)(F)F)c1)n2Cc1ccc(Cl)cc1` [HC-608], for which the inhibition at 1 µM was -5.9% on Ca2+ channel (N) (read-out: % Inhibition 1st); -13.1% at Ca2+ channel (N) (read-out: % Inhibition 2nd); -9.5% at Ca2+ channel (N) (read-out: % Inhibition Mean); 2.2% at MT1 (ML1A) (h) (read-out: % Inhibition 1st); -0.9% at MT1 (ML1A) (h) (read-out: % Inhibition 2nd); 0.7% at MT1 (ML1A) (h) (read-out: % Inhibition Mean). For the same molecule, the inhibition at 1 µM on PPARγ (h) (1.0E-06 M, read-out: % Inhibition 1st) was 6.7%; on PPARγ (h) (1.0E-06 M, read-out: % Inhibition 2nd), 16.2%; on PPARγ (h) (read-out: % Inhibition Mean), 11.5%; at α2C (h) (read-out: % Inhibition 1st), -4.1%; on α2C (h) (read-out: % Inhibition 2nd), -10.2%; at α2C (h) (read-out: % Inhibition Mean), -7.1%. The inhibition at 1 µM on CB2 (h) (read-out: % Inhibition 1st) was 16.6%; at CB2 (h) (read-out: % Inhibition 2nd) it was 25.1%; at CB2 (h) (read-out: % Inhibition Mean) it was 20.9%; on M1 (h) (read-out: % Inhibition 1st), -1.6%; on M1 (h) (read-out: % Inhibition 2nd), 5.5%; on M1 (h) (read-out: % Inhibition Mean) it was 2%. The inhibition at 1 µM is -27% on sst4 (h) (read-out: % Inhibition 1st); 9.5% at sst4 (h) (read-out: % Inhibition 2nd); -8.8% on sst4 (h) (read-out: % Inhibition Mean); 8.6% on V2 (h) (read-out: % Inhibition 1st); 5.7% at V2 (h) (read-out: % Inhibition 2nd); 7.1% at V2 (h) (read-out: % Inhibition Mean). Besides, the inhibition at 1 µM is 2.9% on MC4 (h) (read-out: % Inhibition 1st); -4.8% at MC4 (h) (read-out: % Inhibition 2nd); -1% at MC4 (h) (read-out: % Inhibition Mean); -11% at 5-HT1B (read-out: % Inhibition 1st); -9.4% on 5-HT1B (read-out: % Inhibition 2nd); -10.2% at 5-HT1B (read-out: % Inhibition Mean). In addition, the figures for the “% Inhibition 1st” value in the series with Cl- channel (GABA-gated) and in the series on BZD (central) were 24.7% and -3%, respectively. The “% Inhibition 2nd” value in the series with Cl- channel (GABA-gated) is 23.2%; with BZD (central), -31.5%. For the same molecule, the “% Inhibition Mean” value is reported as 23.9% in the series with Cl- channel (GABA-gated) and -17.3% in the series with BZD (central).
